From patent US20080138291A1, “Sulfonamide Derivatives Having Carbonic Anhydrase Inhibiting Activity and their Use as Therapeutic and Diagnostic Agents” (UNION LIFE SCIENCES LTD., priority 2005, published 2008)
Like-named read-outs stand apart in the source and are kept apart here.

Legend:
[1] = molecular target: hCA II (Homo sapiens, UniProt P00918); test: CA inhibition, CO2 hydration method, isozyme II; format: biochemical; settings: for Ki: human cloned isozyme, CO2 hydration method; for hCA II inhibitors, ranking in the series: discussion of Table 1
[2] = molecular target: hCA IX (Homo sapiens, UniProt Q16790); test: CA inhibition, CO2 hydration method, isozyme IX (catalytic domain); format: biochemical
[3] = molecular target: hCA I (Homo sapiens, UniProt P00915); test: CA inhibition, CO2 hydration method, isozyme I; format: biochemical
Chain of hCA I (P00915 whole entry, the tested form may be a part): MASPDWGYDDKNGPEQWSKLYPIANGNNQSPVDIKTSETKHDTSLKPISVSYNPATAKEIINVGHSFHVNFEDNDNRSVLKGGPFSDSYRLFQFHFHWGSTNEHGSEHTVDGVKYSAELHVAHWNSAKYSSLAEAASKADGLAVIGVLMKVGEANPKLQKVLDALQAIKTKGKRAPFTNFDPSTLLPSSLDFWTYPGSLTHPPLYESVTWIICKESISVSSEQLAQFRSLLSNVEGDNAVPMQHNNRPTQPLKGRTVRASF

[4] = molecular target: hCA XII (Homo sapiens, UniProt O43570); test: CA inhibition, CO2 hydration method, isozyme XII (catalytic domain); format: biochemical; settings: Table 2, catalytic domain of human cloned isozyme
Chain of hCA XII (O43570 30-289 limits assumed): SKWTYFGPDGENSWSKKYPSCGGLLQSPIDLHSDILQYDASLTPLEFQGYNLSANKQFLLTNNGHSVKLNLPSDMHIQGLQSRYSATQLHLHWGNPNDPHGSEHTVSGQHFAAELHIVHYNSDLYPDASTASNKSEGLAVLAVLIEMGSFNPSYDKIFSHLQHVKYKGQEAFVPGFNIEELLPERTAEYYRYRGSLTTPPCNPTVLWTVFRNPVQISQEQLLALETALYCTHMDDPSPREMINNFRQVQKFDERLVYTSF

[5] = test system: human red cells; test: Ex vivo penetration through red blood cell membranes; settings: for [sulfonamide] in red blood cells, t = 30 min, HPLC / [sulfonamide] in red blood cells, t = 30 min, ES / [sulfonamide] in red blood cells, t = 60 min, HPLC / [sulfonamide] in red blood cells, t = 60 min, ES / [sulfonamide] in red blood cells, t = 48 h, HPLC / [sulfonamide] in red blood cells, t = 48 h, ES: 3 mM sulfonamide in 5 mM Tris buffer pH 7.4; for [sulfonamide] in red blood cells, t = 30 min, HPLC / [sulfonamide] in red blood cells, t = 60 min, HPLC / [sulfonamide] in red blood cells, t = 48 h, HPLC: HPLC method; for [sulfonamide] in red blood cells, t = 30 min, ES / [sulfonamide] in red blood cells, t = 60 min, ES / [sulfonamide] in red blood cells, t = 48 h, ES: electronic spectroscopy; for membrane permeability at exposure times of 30-60 min / membrane permeability after 48 hours of exposure: human RBCs, pH 7.4
[6] = test system: human red cells
[7] = test system: MDCK-CA IX cells; test: Binding of fluorescent sulfonamide to MDCK-CA IX cells (fluorescence microscopy); format: cell-based, canine; settings: CA IX-positive and mock-transfected MDCK cells, normoxia or hypoxia 48 h
Source text: (§1) Sulfonamide treatment of cells. […] Images were acquired by Nikon Coolpix 990.

[8] = test system: SiHa cervical carcinoma cells; test: Binding of fluorescent sulfonamide to SiHa cells; settings: hypoxic versus normoxic cells
Procedure: (§2) Sulfonamide treatment of cells. The sulfonamides were dissolved in PBS with 20% DMSO at 100 mM concentration and diluted in a culture medium to a required final concentration just before their addition to cells. Immediately after beginning of the treatment with sulfonamides, the cells were transferred to hypoxia and incubated for 48 h. Parallel cultures were maintained for the same time period in normoxia.

[9] = test system: HeLa cervical carcinoma cells; test: Effect on extracellular pH of HeLa cells in hypoxia; format: cell-based; settings: hypoxia 48 h, 1 mM
Procedure: Cell cultures. MDCK and HeLa cells as well as their transfected derivatives were grown in DMEM with 10% FCS (BioWhittaker, Verviers, Belgium) buffered with 22.4 mM bicarbonate and containing supplements as described before (Svastova, E.; et al.; Exp. Cell. Res. 2003, 290, 332-345) To maintain standard experimental conditions, the cells were always plated in 3 ml of culture medium at a density of 0.8−1×10^6 per 6 cm dish 24 h before the transfer to hypoxia (2% O2 and 5% CO2 balanced with N2) generated in a Napco 7000 incubator, where they were grown for additional 48 h (if not stated otherwise). Parallel normoxic dishes were incubated in air with 5% CO2.
as §1
Mean differences in the pH values determined in the treated versus control dishes are shown on the histogram with indicated standard deviations. The experiment was repeated three times using at least three parallel dishes for each sample.

[10] = test system: SiHa cervical carcinoma cells; test: Effect on extracellular pH of SiHa cells in hypoxia; format: cell-based; settings: hypoxia 48 h, 1 mM
[11] = test system: HeLa cervical carcinoma cells; test: Binding of fluorescent sulfonamide to HeLa cells; settings: hypoxic versus normoxic cells
Procedure: as §2

[12] = Table 1, catalytic domain of human cloned isozyme
[13] = Table 1, human cloned isozyme, read-out: KI hCA I
[14] = Table 2, catalytic domain of human cloned isozyme
[15] = Table 2, human cloned isozyme, read-out: KI hCA I

Ki ([1]; Table 1) [nM] | Ki [2, 12] [nM] | Ki [3, 13] [nM] | Ki [4] [nM] | Ki ([1]; Table 2) [nM] | Ki [2, 14] [nM] | Ki [3, 15] [nM] | SMILES | also measured
52 | 32 | 950 |  |  |  |  | NS(=O)(=O)c1ccc(NC(=S)Nc2ccc(-c3c4ccc(=O)cc-4oc4cc(O)ccc34)c(C(=O)O)c2)c(Cl)c1 [5f] | 
40 | 25 | 1200 |  |  |  |  | NS(=O)(=O)c1ccc(NNC(=S)Nc2ccc(-c3c4ccc(=O)cc-4oc4cc(O)ccc34)c(C(=O)O)c2)cc1 [5d] | 
52 | 34 | 1400 |  |  |  |  | NS(=O)(=O)c1cccc(NC(=S)Nc2ccc(-c3c4ccc(=O)cc-4oc4cc(O)ccc34)c(C(=O)O)c2)c1 [5i, (3-Sulfamoylphenyl)thioureido fluorescein] | 
 | 26 | 1450 |  |  |  |  | NS(=O)(=O)c1ccc(CNC(=S)Nc2ccc(-c3c4ccc(=O)cc-4oc4cc(O)ccc34)c(C(=O)O)c2)cc1 [5b, (4-sulfamoylphenylmethyl)thioureido fluorescein] | [sulfonamide] in red blood cells, t = 30 min, HPLC [5]: 0.5 µM; [sulfonamide] in red blood cells, t = 30 min, ES [5]: 0.8 µM; [sulfonamide] in red blood cells, t = 60 min, HPLC [5]: 0.8 µM; [sulfonamide] in red blood cells, t = 60 min, ES [5]: 0.8 µM; [sulfonamide] in red blood cells, t = 48 h, HPLC [5]: 10.1 µM; [sulfonamide] in red blood cells, t = 48 h, ES [5]: 2.5 µM; membrane permeability at exposure times of 30-60 min [5]: decreased membrane permeability; membrane permeability after 48 hours of exposure [5]: slightly more permeant
27 | 16 | 480 |  |  |  |  | NS(=O)(=O)c1nnc(NS(=O)(=O)c2ccc(NC(=S)Nc3ccc(-c4c5ccc(=O)cc-5oc5cc(O)ccc45)c(C(=O)O)c3)cc2)s1 [5k, [4-(5-Sulfamoyl-[1,3,4]thiadiazol-2-ylsulfamoyl)-phenyl]-thioureido fluorescein] | hCA II inhibitors, ranking in the series [1]: best hCA II inhibitors in this series
41 | 29 | 1500 |  |  |  |  | NS(=O)(=O)c1ccc(NC(=S)Nc2ccc(-c3c4ccc(=O)cc-4oc4cc(O)ccc34)c(C(=O)O)c2)cc1 [5a, (4-Sulfamoylphenyl)thioureido fluorescein] | 
43 | 35 | 1100 |  |  |  |  | NS(=O)(=O)c1ccc(NC(=S)Nc2ccc(-c3c4ccc(=O)cc-4oc4cc(O)ccc34)c(C(=O)O)c2)c(Br)c1 [5g] | 
34 | 20 | 630 |  |  |  |  | NS(=O)(=O)c1ccc(CNS(=O)(=O)c2ccc(NC(=S)Nc3ccc(-c4c5ccc(=O)cc-5oc5cc(O)ccc45)c(C(=O)O)c3)cc2)cc1 [5j] | hCA II inhibitors, ranking in the series [1]: best hCA II inhibitors in this series
40 | 31 | 1070 |  |  |  |  | NS(=O)(=O)c1ccc(NC(=S)Nc2ccc(-c3c4ccc(=O)cc-4oc4cc(O)ccc34)c(C(=O)O)c2)c(I)c1 [5h, (2-Iodo-4-sulfamoylphenyl)thioureido fluorescein] | 
 | 30 | 980 |  |  |  |  | NS(=O)(=O)c1ccc(NC(=S)Nc2ccc(-c3c4ccc(=O)cc-4oc4cc(O)ccc34)c(C(=O)O)c2)c(F)c1 [5e] | 

More lines, now with the values behind:

SMILES | Ki ([1]; Table 1) [nM] | Ki [2, 12] [nM] | Ki [3, 13] [nM] | Ki [4] [nM] | Ki ([1]; Table 2) [nM] | Ki [2, 14] [nM] | Ki [3, 15] [nM] | also measured
NS(=O)(=O)c1ccc(CNC(=O)Nc2ccc(-c3c4ccc(=O)cc-4oc4cc(O)ccc34)c(C(=O)O)c2)cc1 [compound 4, (4-Sulfamoylphenylmethyl)ureido fluorescein] |  |  |  | 8 | 40 | 21 | 1560 | 
NS(=O)(=O)c1ccc(CCNC(=O)Nc2ccc(-c3c4ccc(=O)cc-4oc4cc(O)ccc34)c(C(=O)O)c2)cc1 [compound 5, (4-Sulfamoylphenylethyl)ureido fluorescein] |  |  |  | 7 | 35 |  | 1340 | 
NS(=O)(=O)c1ccccc1NC(=O)Nc1ccc(-c2c3ccc(=O)cc-3oc3cc(O)ccc23)c(C(=O)O)c1 [compound 3, (2-Sulfamoylphenyl)ureido fluorescein] |  |  |  | 18 | 76 | 46 | 1900 | 
NS(=O)(=O)c1ccc(NC(=O)Nc2ccc(-c3c4ccc(=O)cc-4oc4cc(O)ccc34)c(C(=O)O)c2)c(Cl)c1 [compound 7] |  |  |  | 12 | 43 | 22 | 1330 | 
CC(=O)/N=c1/sc(S(N)(=O)=O)nn1C [MZA, methazolamide, reference compound] |  |  |  |  |  |  |  | penetration through red blood cell membranes [6]: easily penetrate through biological membranes; [sulfonamide] in red blood cells, t = 30 min, HPLC [5]: 170 µM; [sulfonamide] in red blood cells, t = 30 min, ES [5]: 169 µM; [sulfonamide] in red blood cells, t = 60 min, HPLC [5]: 168 µM; [sulfonamide] in red blood cells, t = 60 min, ES [5]: 168 µM; [sulfonamide] in red blood cells, t = 48 h, HPLC [5]: 167 µM; [sulfonamide] in red blood cells, t = 48 h, ES [5]: 169 µM
NS(=O)(=O)c1ccc(NC(=O)Nc2ccc(-c3c4ccc(=O)cc-4oc4cc(O)ccc34)c(C(=O)O)c2)c(F)c1 [compound 6, (2-Fluoro-4-sulfamoylphenyl)ureido fluorescein] |  |  |  | 10 | 40 | 21 | 1200 | 
NS(=O)(=O)c1ccc(CCNC(=S)Nc2ccc(-c3c4ccc(=O)cc-4oc4cc(O)ccc34)c(C(=O)O)c2)cc1 [5c, (4-Sulfamoylphenylethyl)thioureido fluorescein] |  |  |  |  |  |  |  | fluorescence signal (binding to cells) [7]: detected only in the hypoxic MDCK-CA IX cells; binding to SiHa cells [8]: binds to hypoxic HeLa and SiHa cells; acidosis (pHe) of hypoxic HeLa cells [9]: reduced; acidosis (pHe) of hypoxic SiHa cells [10]: reduced; binding to HeLa cells [11]: binds to hypoxic HeLa and SiHa cells; Ki ([3]; KI hCA I, Table 1, human cloned isozyme): 1300 nM; [sulfonamide] in red blood cells, t = 30 min, HPLC [5]: 0.4 µM; [sulfonamide] in red blood cells, t = 30 min, ES [5]: 0.9 µM; [sulfonamide] in red blood cells, t = 60 min, HPLC [5]: 0.6 µM; [sulfonamide] in red blood cells, t = 60 min, ES [5]: 1.2 µM; [sulfonamide] in red blood cells, t = 48 h, HPLC [5]: 10.4 µM; [sulfonamide] in red blood cells, t = 48 h, ES [5]: 3.0 µM; membrane permeability at exposure times of 30-60 min [5]: decreased membrane permeability; membrane permeability after 48 hours of exposure [5]: slightly more permeant
NS(=O)(=O)c1ccc(CNS(=O)(=O)c2ccc(NC(=O)Nc3ccc(-c4c5ccc(=O)cc-5oc5cc(O)ccc45)c(C(=O)O)c3)cc2)cc1 [compound 10, [4-(4-Sulfamoyl-benzylsulfamoyl)-phenyl]-ureido fluorescein] |  |  |  | 5 | 14 | 7 | 520 | 
NS(=O)(=O)c1cccc(NC(=O)Nc2ccc(-c3c4ccc(=O)cc-4oc4cc(O)ccc34)c(C(=O)O)c2)c1 [compound 2, (3-Sulfamoylphenyl)ureido fluorescein] |  |  |  | 9 | 43 | 30 | 1800 | 
NS(=O)(=O)c1nnc(NS(=O)(=O)c2ccc(NC(=O)Nc3ccc(-c4c5ccc(=O)cc-5oc5cc(O)ccc45)c(C(=O)O)c3)cc2)s1 [compound 11, [4-(5-Sulfamoyl-[1,3,4]thiadiazol-2-ylsulfamoyl)-phenyl]-ureido fluorescein] |  |  |  | 3 | 13 | 6 | 410 | 
NS(=O)(=O)c1ccc(NC(=O)Nc2ccc(-c3c4ccc(=O)cc-4oc4cc(O)ccc34)c(C(=O)O)c2)c(I)c1 [compound 9, (2-Iodo-4-sulfamoylphenyl)ureido fluorescein] |  |  |  | 7 | 43 | 21 | 1350 | 
NS(=O)(=O)c1ccc(NC(=O)Nc2ccc(-c3c4ccc(=O)cc-4oc4cc(O)ccc34)c(C(=O)O)c2)cc1 [compound 1, (4-Sulfamoylphenyl)ureido fluorescein] |  |  |  | 11 | 36 | 21 | 1700 | 
